Assay results published in patent US20230124720A1, “APPLICATION OF ACRIDINEDIONE COMPOUND IN PREPARATION OF ANTI-DIABETIC DRUGS” (THE FOURTH MILITARY MEDICAL UNIVERSITY, priority 2020, published 2023).
pEC50: −log10 of the molar value.

Key:
[1] = test system: STZ-induced T2DM rats; assay: Serum lipid metabolism indicators in T2DM rats; format: in vivo, rat
Description: 150 male SD rats, housed in cages in a clean constant temperature (23±2° C.) and humidity (55±10%) animal house, were manually adjusted on a daily 12 h/12 h diurnal light cycle with free access to water. After 3 days of adaptive feeding, 150 rats were randomly divided into normal and model groups. The normal (Con, n=15) group of rats remained on raw chow and the model group (n=135) of rats were given high fat high sugar chow. All rats were fed twice daily and the amount of feed was adjusted as needed to ensure adequate feed. After 8 weeks of group feeding, the model group rats were given an intraperitoneal injection of 25 mg/kg STZ solution with a 12 h fast prior to injection. After injection, feeding was continued as in the original method, blood was taken from the tail vein at 72 h for blood glucose measurement, and rats with fasting blood glucose levels ≥11.1 mmol/L on different days were screened for successful artificial induction of T2DM and administered in groups for the next experiment. 135 rats with successful modeling were randomly divided into 9 groups: […] […] Relevant indicators of lipid metabolism were measured after the end of the study.

[2] = test system: STZ-induced T2DM rats; assay: Postprandial blood glucose in STZ-induced T2DM rats; format: in vivo, rat; settings: for reduction in blood glucose compared to the TD group: end of administration
Description: 150 male SD rats, housed in cages in a clean constant temperature (23±2° C.) and humidity (55±10%) animal house, were manually adjusted on a daily 12 h/12 h diurnal light cycle with free access to water. After 3 days of adaptive feeding, 150 rats were randomly divided into normal and model groups. The normal (Con, n=15) group of rats remained on raw chow and the model group (n=135) of rats were given high fat high sugar chow. All rats were fed twice daily and the amount of feed was adjusted as needed to ensure adequate feed. After 8 weeks of group feeding, the model group rats were given an intraperitoneal injection of 25 mg/kg STZ solution with a 12 h fast prior to injection. After injection, feeding was continued as in the original method, blood was taken from the tail vein at 72 h for blood glucose measurement, and rats with fasting blood glucose levels ≥11.1 mmol/L on different days were screened for successful artificial induction of T2DM and administered in groups for the next experiment. 135 rats with successful modeling were randomly divided into 9 groups: […] (2) 0.01 mg/kg ADD-16 administration group (ADD I, n=15): daily administration of 0.01 mg/kg ADD-16 solution by gavage; (3) 0.1 mg/kg ADD-16 administration group (ADD II, n=15): daily administration of a 0.1 mg/kg ADD-16 solution by gavage; (4) 1 mg/kg ADD-16 administration group (ADD III, n=15): daily administration of a 1 mg/kg ADD-16 solution by gavage; (5) 3 mg/kg ADD-16 administration group (ADD IV, n=15): daily administration of a 3 mg/kg ADD-16 solution by gavage; (6) 10 mg/kg ADD-16 administration group (ADD V, n=15): daily administration of a 10 mg/kg ADD-16 solution by gavage; (7) 50 mg/kg ADD-16 administration group (ADD VI, n=15): daily administration of a 50 mg/kg ADD-16 solution by gavage; […] (9) Sitagliptin control group (ST, n=15): daily administration of a 6 mg/kg sitagliptin solution by gavage. […] Relevant indicators of lipid metabolism were measured after the end of the study.

[3] = target: T1, HEK-293T cells stably overexpressing GPR40 (Homo sapiens, UniProt O14842); assay: GPR40 agonistic activity assay (Fluo-4 AM fluorescence, Flexstation); format: cell-based
T1 construct: expressed in transfected cells; host or cells: HEK-293T
T1 sequence (O14842 whole entry): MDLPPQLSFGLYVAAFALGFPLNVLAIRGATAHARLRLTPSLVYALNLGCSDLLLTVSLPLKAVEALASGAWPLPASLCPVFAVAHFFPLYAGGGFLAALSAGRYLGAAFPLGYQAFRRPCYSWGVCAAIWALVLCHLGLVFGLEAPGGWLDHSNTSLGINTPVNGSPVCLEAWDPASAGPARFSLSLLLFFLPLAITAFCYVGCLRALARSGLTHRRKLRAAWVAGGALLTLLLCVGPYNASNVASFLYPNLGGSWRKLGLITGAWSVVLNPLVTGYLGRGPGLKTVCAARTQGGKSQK
Description: There were triplicate wells for each group, and a Flexstation instrument was used for detecting and reading fluorescence values. Each compound dilution concentration was: 200 μmol/L, 100 μmol/L, 50 μmol/L, 10 μmol/L, 5 μmol/L.
EC50 value for each compound was calculated from the measured fluorescence value according to the following formula:
Relative agonism ratio=(fluorescence value of test compound-fluorescence value of negative control)/(fluorescence value of agonist positive control-fluorescence value of negative control)*100%;

[4] = test system: MIN6 cells; assay: Glucose-stimulated insulin secretion in MIN6 cells (GSIS); format: cell-based, mouse
Description: MIN6 cells were seeded in a 24-well plate at an appropriate concentration, and after continued culture until cell confluence exceeded 80%, administration was carried out in the following groups: normal control group (Con), ADD group (ADD-16 was administered at a concentration of 100 μmol/L, 30 μmol/L, 10 μmol/L, 3 μmol/L, 1 μmol/L, 0.3 μmol/L, respectively), TAK875 group (administered at a concentration of 10 μmol/L, 3 μmol/L, 1 μmol/L, respectively), with 6 replicates per group. Incubation was continued for 24 h after group dosing, media was aspirated and gently rinsed 2 times with a sugar-free KRB buffer. After rinsing, the sugar-free KRB buffer was added and incubated at 37° C. for 10 min. At the end of the incubation, the buffer was aspirated and each well was exhausted as much as possible. Each group was dosed with 16.7 mmol/L glucose in a KRB buffer and incubated at 37° C. for 1 hour. All media in the wells was aspirated after 1 h, centrifuged at 2000 rmp/min for 20 min, and the supernatant was collected and stored at −20° C. The insulin content was measured for each group following the instructions of the mouse insulinase ELISA assay kit.
Insulinase ELISA assay: the supernatant of each set of media was taken and processed according to the procedure of Table 1:
The final mixture was mixed well with shaking and the OD was read on a microplate reader at 450 nm. The insulin content of each group was calculated.

In the case of `CC1(C)CC(=O)C2=C(C1)NC1=C(C(=O)CC(C)(C)C1)C2c1ccc(OCc2ccc(C(=O)O)cc2)c(Br)c1` [ADD-16], the “TG, LDL and HDL levels, 10 mg/kg against 3 mg/kg (in words)” value ([1]; ADD V (10 mg/kg) group) was “significantly lower than ADD IV (3 mg/kg) group rats”, the “serum FFA, TC, TG, LDL and HDL levels (in words)” value ([1]; four weeks after administration, ADD-16: ADD III-ADD VI groups (1-50 mg/kg), P<0.05) was “significantly decreased” and the “reduction in blood glucose compared to the TD group” value (“reduction in blood glucose” for short) ([2]; ADD IV group, 3 mg/kg daily by gavage) was 55.0%. For the same compound, the “reduction in blood glucose” value ([2]; ADD V group, 10 mg/kg daily by gavage) was 56.8%, the “reduction in blood glucose” value ([2]; ADD VI group, 50 mg/kg daily by gavage) was 56.2% and the “hypoglycemic effect (in words)” value ([2]; T2DM rats, 3, 10, 50 mg/kg) was “significant hypoglycemic effect”. For the same compound, the pEC50 ([3]; GPR40 agonism, n = 6) was 4.91, the “agonistic activity (in words)” value ([3]; among the candidate compounds screened) was “highest agonistic activity” and the “insulin secretion compared to the Con group (in words)” value ([4]; 100 μmol/L, 24 h) was “decreased insulin secretion”. The “glucose-stimulated insulin secretion (in words)” value ([4]; 24 h, 16.7 mmol/L glucose, concentration dependent) was “promote glucose-stimulated insulin secretion” and the “insulinotropic effect compared with TAK875 (in words)” value ([4]; same concentrations) was “significantly better than TAK875”.
